Molecules are shown by their SMILES.

The target in the assay is hS1P3 (Homo sapiens, UniProt Q99500). Nature of the assay: Suppressive effect on S1P-induced increase in [Ca2+]i, CHO-K1 cells expressing S1P3 (Fura 2-AM), IC50. Type of assay: cell-based. Conditions: S1P solution 50 nmol/L, read-out: hS1P3 suppression IC50.
Chain of hS1P3 (Q99500 whole entry): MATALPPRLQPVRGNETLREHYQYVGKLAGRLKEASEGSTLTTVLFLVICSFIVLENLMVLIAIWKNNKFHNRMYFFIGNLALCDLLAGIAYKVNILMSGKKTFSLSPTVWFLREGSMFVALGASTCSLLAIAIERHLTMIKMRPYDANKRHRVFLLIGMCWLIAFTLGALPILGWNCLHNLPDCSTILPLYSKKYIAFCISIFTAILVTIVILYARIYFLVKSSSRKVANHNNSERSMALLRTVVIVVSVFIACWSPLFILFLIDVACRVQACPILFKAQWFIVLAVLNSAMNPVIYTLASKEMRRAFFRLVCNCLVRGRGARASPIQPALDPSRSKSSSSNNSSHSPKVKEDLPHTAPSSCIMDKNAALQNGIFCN

Regarding `CC(C)(C)C(=O)C(=NNc1ccc(C#N)cc1)Nc1cccc(F)c1` [Compound 81, 1-(4-cyanophenylhydrazono)-1-(3-fluorophenylamino)-3,3-dimethyl-2-butanone], the IC50 (as a rule, the concentration that gives 50% inhibition) is 5.52 µM.

Consider `CC(C)(C)C(=O)C(=NNc1ccc(Cl)cc1)Nc1cc(Cl)cc(Cl)c1` [Compound 37, 1-(4-chlorophenylhydrazono)-1-(3,5-dichlorophenylamino)-3,3-dimethyl-2-butanone], for which the IC50 stood at 0.49 µM.

On to `CC(C)(C)CC(=O)C(=NNc1ccc(Cl)cc1)Nc1ccc(F)cc1` [Compound 114, 1-(4-chlorophenylhydrazono)-1-(4-fluorophenylamino)-4,4-dimethyl-2-pentanone], for which the IC50 was determined as 2.09 µM.

For `C#Cc1cccc(NC(=NNc2ccc(Cl)c(Cl)c2)C(=O)C(C)(C)C)c1` [Compound 107, 1-(3,4-dichlorophenylhydrazono)-1-(3-ethynylphenylamino)-3,3-dimethyl-2-butanone], the IC50 was 0.69 µM.

For `CC(C)(C)C(=O)C(=NNc1ccc(Cl)cc1)Nc1cc(Cl)nc(Cl)c1` [Compound 35, 1-(4-chlorophenylhydrazono)-1-(2,6-dichloropyridin-4-ylamino)-3,3-dimethyl-2-butanone], the IC50 was 7.49 µM.

As to `CC(C)(C)C(=O)C(=NNc1ccc(C#N)cc1)Nc1ccc(F)cc1` [Compound 82, 1-(4-cyanophenylhydrazono)-1-(4-fluorophenylamino)-3,3-dimethyl-2-butanone], the IC50 was found to be 5.07 µM.

`CCOC(=O)C(=NNc1ccc(Cl)cc1)Nc1cc(F)cc(F)c1` [Compound 17, ethyl 1-(4-chlorophenylhydrazono)-1-(3,5-difluorophenylamino)acetate]: the IC50 worked out at 1.92 µM.

`CC(C)(C)NC(=O)C(=NNc1ccc(Cl)cc1)Nc1cc(Cl)cc(Cl)c1` [Compound 30, N-tert-butyl-[1-(4-chlorophenylhydrazono)-1-(3,5-dichlorophenylamino)]acetamide]: the half-maximal inhibitory concentration (IC50) was found to be 12.3 µM.

Regarding `CC(C)(C)C(=O)C(=NNc1ccc(Cl)cc1)Nc1cccc(C(F)(F)F)c1` [Compound 36, 1-(4-chlorophenylhydrazono)-1-(3-trifluoromethylphenylamino)-3,3-dimethyl-2-butanone], the IC50 turned out to be 2.53 µM.

Turning to `C#Cc1ccc(NC(=NNc2ccc(C#N)cc2)C(=O)C(C)(C)C)cc1` [Compound 86, 1-(4-cyanophenylhydrazono)-1-(4-ethynylphenylamino)-3,3-dimethyl-2-butanone], the IC50 was 6.64 µM.

Turning to `CCC(CC)C(=O)C(=NNc1ccc(Cl)cc1)Nc1ccc(Cl)cc1` [Compound 110, 1-(4-chlorophenylamino)-1-(4-chlorophenylhydrazono)-3-ethyl-2-pentanone], the IC50 is 0.97 µM.

In the case of `CC(C)(C)C(=O)C(=NNc1ccccc1)Nc1cc(Cl)cc(Cl)c1` [Compound 51, 1-(3,5-dichlorophenylamino)-1-(phenylhydrazono)-3,3-dimethyl-2-butanone], the half-maximal inhibitory concentration (IC50) came out at 2.44 µM.

On to `CCOC(=O)C(=NNc1ccc(Cl)cc1)Nc1cccc(C(F)(F)F)c1` [Compound 16, ethyl 1-(4-chlorophenylhydrazono)-1-(3-trifluoromethylphenylamino)acetate], for which the IC50 was found to be 3.94 µM.

Consider `CC(C)(C)NC(=O)C(=NNc1ccc(Cl)cc1)Nc1ccc(Cl)c(Cl)c1` [Compound 31, N-tert-butyl-[1-(4-chlorophenylhydrazono)-1-(3,4-dichlorophenylamino)]acetamide], for which the IC50 was 10.5 µM.

Consider `CC(C)(C)C(=O)C(=NNc1ccc(Cl)cc1)Nc1ccc(Cl)c(F)c1` [Compound 135, 1-(4-chloro-3-fluorophenylamino)-1-(4-chlorophenylhydrazono)-3,3-dimethyl-2-butanone], for which the IC50 was 0.9 µM.

Consider `CCOC(=O)C(=NNc1ccc(Cl)cc1)Nc1ccc(Cl)cc1` [Compound 14, ethyl 1-(4-chlorophenylamino)-1-(4-chlorophenylhydrazono)acetate], for which the IC50 is 1.87 µM.

In the case of `CC(C)(C)C(=O)C(=NNc1ccc(Cl)c(Cl)c1)Nc1ccc(Cl)cc1` [Compound 124, 1-(4-chlorophenylamino)-1-(3,4-dichlorophenylhydrazono)-3,3-dimethyl-2-butanone], the IC50 was found to be 0.45 µM.

Regarding `CC(C)(C)C(=O)C(=NNc1ccc(F)cc1)Nc1ccc(Cl)cc1` [Compound 55, 1-(4-chlorophenylamino)-1-(4-fluorophenylhydrazono)-3,3-dimethyl-2-butanone], the IC50 came out at 2.75 µM.

`O=C(C(=NNc1ccc(Cl)cc1)Nc1ccc(Cl)cc1)c1ccccc1` [Compound 12, 2-(4-chlorophenylamino)-2-(4-chlorophenylhydrazono)acetophenone]: the half-inhibitory concentration (IC50) was 4.84 µM.

With `O=C(C(=NNc1ccc(Cl)cc1)Nc1ccc(F)cc1)c1ccccc1` [Compound 9, 2-(4-chlorophenylhydrazono)-2-(4-fluorophenylamino)acetophenone], the half-inhibitory concentration (IC50) stood at 4.57 µM.

With `CCOC(=O)C(=NNc1ccc(Cl)cc1)Nc1cc(Cl)cc(Cl)c1` [Compound 18, ethyl 1-(4-chlorophenylhydrazono)-1-(3,5-dichlorophenylamino)acetate], the IC50 amounted to 2.34 µM.

In the case of `CC(C)(C)C(=O)C(=NNc1ccc(F)cc1)Nc1cc(Cl)cc(Cl)c1` [Compound 59, 1-(3,5-dichlorophenylamino)-1-(4-fluorophenylhydrazono)-3,3-dimethyl-2-butanone], the IC50 came to 1.39 µM.

Take `CC(C)(C)C(=O)C(=NNc1ccc(S(C)(=O)=O)cc1)Nc1ccc(Cl)cc1` [Compound 99, 1-(4-chlorophenylamino)-1-(4-methanesulfonylphenylhydrazono)-3,3-dimethyl-2-butanone]: the half-inhibitory concentration (IC50) was 10.6 µM.

With `CC(C)(C)C(=O)C(=NNc1ccc(Br)cc1)Nc1ccc(Cl)c(F)c1` [Compound 105, 1-(4-bromophenylhydrazono)-1-(4-chloro-3-fluorophenylamino)-3,3-dimethyl-2-butanone], the IC50 worked out at 0.52 µM.

Consider `CCCCC(=O)C(=NNc1ccc(Cl)cc1)Nc1ccc(Cl)c(Cl)c1` [Compound 109, 1-(4-chlorophenylhydrazono)-1-(3,4-dichlorophenylamino)-2-hexanone], for which the half-inhibitory concentration (IC50) turned out to be 0.76 µM.

Take `C#Cc1ccc(NC(=NNc2ccc(Cl)c(Cl)c2)C(=O)C(C)(C)C)cc1` [Compound 132, 1-(3,4-dichlorophenylhydrazono)-1-(4-ethynylphenylamino)-3,3-dimethyl-2-butanone]: the IC50 was 0.82 µM.

As for `C#Cc1ccc(NC(=NNc2ccc(C(C)=O)cc2)C(=O)C(C)(C)C)cc1` [Compound 95, 1-(4-acetylphenylhydrazono)-1-(4-ethynylphenylamino)-3,3-dimethyl-2-butanone], the half-inhibitory concentration (IC50) amounted to 18.6 µM.

On to `CC(C)(C)C(=O)C(=NNc1ccc(F)cc1)Nc1ccc(Cl)c(Cl)c1` [Compound 60, 1-(3,4-dichlorophenylamino)-1-(4-fluorophenylhydrazono)-3,3-dimethyl-2-butanone], for which the IC50 was found to be 1.02 µM.

Regarding `C#Cc1ccc(NN=C(Nc2ccc(Cl)cc2)C(=O)C(C)(C)C)cc1` [Compound 106, 1-(4-chlorophenylamino)-1-(4-ethynylphenylhydrazono)-3,3-dimethyl-2-butanone], the 50% inhibitory concentration (IC50) came out at 0.66 µM.

For the molecule `CC(C)(C)C(=O)C(=NNc1ccc(Cl)cc1)Nc1cc(F)cc(F)c1` [Compound 34, 1-(4-chlorophenylhydrazono)-1-(3,5-difluorophenylamino)-3,3-dimethyl-2-butanone], the concentration for half-maximal inhibition (IC50) worked out at 1.22 µM.

With `CC(=O)c1ccc(NN=C(Nc2ccc(F)cc2)C(=O)C(C)(C)C)cc1` [Compound 92, 1-(4-acetylphenylhydrazono)-1-(4-fluorophenylamino)-3,3-dimethyl-2-butanone], the half-maximal inhibitory concentration (IC50) stood at 11.6 µM.

Turning to `O=C(C(=NNc1ccc(Cl)cc1)Nc1ccc(F)cc1)c1ccco1` [Compound 118, 1-(4-chlorophenylhydrazono)-1-(4-fluorophenylamino)-2-(2-furyl)-2-ethanone], the IC50 is 3.85 µM.

Consider `O=C(C(=NNc1ccc(Cl)cc1)Nc1ccc(Cl)cc1)N1CCCCC1` [Compound 23, [1-(4-chlorophenylamino)-1-(4-chlorophenylhydrazono)acetyl]piperidine], for which the half-maximal inhibitory concentration (IC50) was 14.5 µM.

Regarding `CC(C)(C)C(=O)C(=NNc1ccc(F)cc1)Nc1ccc(C(F)(F)F)cc1` [Compound 58, 1-(4-fluorophenylhydrazono)-1-(4-trifluoromethylphenylamino)-3,3-dimethyl-2-butanone], the half-maximal inhibitory concentration (IC50) amounted to 5.72 µM.

Consider `CC(=O)c1ccc(NN=C(Nc2cccc(F)c2)C(=O)C(C)(C)C)cc1` [Compound 91, 1-(4-acetylphenylhydrazono)-1-(3-fluorophenylamino)-3,3-dimethyl-2-butanone], for which the IC50 was 8.9 µM.

In the case of `O=C(C(=NNc1ccc(Cl)cc1)Nc1cccc(Cl)c1)c1ccccc1` [Compound 11, 2-(3-chlorophenylamino)-2-(4-chlorophenylhydrazono)acetophenone], the half-inhibitory concentration (IC50) turned out to be 5.34 µM.

Turning to `O=C(C(=NNc1ccc(Cl)cc1)Nc1ccc(Cl)cc1)c1ccco1` [Compound 116, 1-(4-chlorophenylamino)-1-(4-chlorophenylhydrazono)-2-(2-furyl)-2-ethanone], the IC50 was 2.07 µM.

`CC(C)(C)C(=O)C(=NNc1ccc(C(F)(F)F)cc1)Nc1ccc(Cl)c(Cl)c1` [Compound 72, 1-(3,4-dichlorophenylamino)-1-(4-trifluoromethylphenylhydrazono)-3,3-dimethyl-2-butanone]: the IC50 was 3.64 µM.

In the case of `O=C(C(=NNc1ccc(Cl)cc1)Nc1ccc(Br)cc1)c1ccco1` [Compound 119, 1-(4-bromophenylamino)-1-(4-chlorophenylhydrazono)-2-(2-furyl)-2-ethanone], the 50% inhibitory concentration (IC50) was found to be 4.23 µM.

Regarding `COc1ccc(NC(=NNc2ccc(C#N)cc2)C(=O)C(C)(C)C)cc1` [Compound 87, 1-(4-cyanophenylhydrazono)-1-(4-methoxyphenylamino)-3,3-dimethyl-2-butanone], the IC50 came to 14 µM.

As for `COc1ccc(NN=C(Nc2ccc(Cl)cc2)C(=O)C(C)(C)C)cc1` [Compound 90, 1-(4-chlorophenylamino)-1-(4-methoxyphenylhydrazono)-3,3-dimethyl-2-butanone], the IC50 was found to be 6.58 µM.

As to `O=C(C(=NNc1ccc(Cl)cc1)Nc1ccc(Cl)cc1)c1cccs1` [Compound 125, 1-(4-chlorophenylamino)-1-(4-chlorophenylhydrazono)-2-(2-thienyl)-2-ethanone], the half-maximal inhibitory concentration (IC50) turned out to be 8.29 µM.
